The results in this text go back to patent publication US11447504B2, “Macrocyclic chlorine substituted indole derivatives” (Bayer Aktiengesellschaft, priority 2017, dated 2022).

Where a name gives a salt, the structure may show the parent alone. Read-outs that look alike come from different tables or passages of the source.

In data set [1] the test system is SUDHL5. In words: Induction of caspase-3/7 activity (Assay 4), SUDHL5. The class given is cell-based. Particulars: SUDHL5 cells. The protocol:
(§1) Induction of Caspase-3/7 Activity Upon Treatment of Cells with Selected Compounds
The BH3-domain of MCL-1 sequesters pro-apoptotic proteins, thereby inhibiting apoptosis. In contrast, MCL-1 inhibitors are expected to antagonize this effect leading to an increase in apoptosis, which can be determined by measuring the activity of caspase-3/7.
(§2) The activity of caspase-3/7 was determined in DLBCL (Diffuse large B-cell lymphoma) cell lines (SUDHL5 and SUDHL10) upon treatment with different compounds, using the Caspase-Glo®3/7 reagent from Promega (G8092).
(§3) Rim wells were excluded. The cells were incubated for 3 hours in a humidified incubator at 37° C.
(§4) For the evaluation of the results, the background measured with “medium-only” was subtracted from all other values.

In a further data set the test system is MV-4-11. Nature of the data set: Antiproliferation assay 7, MV-4-11. The data set is classed as cell-based. Particulars: MV-4-11 cells, CellTiter-Glo, read-out: Antiproli MV-4-11 IC50 median. The protocol:
(§5) Assessment of the Anti-Proliferative Effect of Compounds in Different Cell Lines
(§6) The impact of compounds on the proliferation of different cell lines was assessed using the CellTiter-Glo® Luminescent Cell Viability reagent from Promega (G7573).
(§7) In parallel, cells were plated in a reference (day 0) plate for time zero determination.
(§8) Rim wells were excluded. The cells were incubated for 72 hours in a humidified incubator at 37° C. The day 0 plate was measured by adding 30 μL/well of CTG solution (CellTiter-Glo® Luminescent Cell Viability reagent, Promega G7573) to time zero wells in the reference plate followed by a 10 minutes incubation and luminescence reading at 0.1 ms. using the PHERAstar FS microplate reader (BMG Labtech).
(§9) After 72 hours incubation, the treated plates were measured in the same way as the day 0 plate mentioned above.
On the technique in general: In ATP-based viability assays light output follows the ATP content of the culture.

Data set [2] deals with SUDHL5. Nature of the data set: Induction of cytotoxicity (Assay 6), SUDHL5.
The test system of data set [3] is SUDHL10. Nature of the data set: Induction of cytotoxicity (Assay 6), SUDHL10.
Data set [4] relates to SUDHL5. In words: Antiproliferation assay 7, SUDHL5. The data set is classed as cell-based. The following applies: SUDHL5 cells, CellTiter-Glo, read-out: Antiproli SUDHL5 IC50 (median). How it is done:
as §5, §6, §7, §8, §9

Data set [5] relates to SUDHL10. In words: Induction of caspase-3/7 activity (Assay 4), SUDHL10. The following applies: SUDHL10 cells. The class given is cell-based. The protocol:
as §1
In contrast, MCL-1 inhibitors are expected to antagonize this effect leading to an increase in apoptosis, which can be determined by measuring the activity of caspase-3/7.
as §2, §3, §4

For a further data set, the system named is AMO-1. Nature of the data set: Antiproliferation assay 7, AMO-1. The data set is classed as cell-based. The following applies: AMO-1 cells, CellTiter-Glo, read-out: Antiproli AMO-1 IC50 median. The protocol: as §5, §6, §7, §8, §9
Where [6] appears, read: Homo sapiens, SU-DHL-5, 3 h, Caspase-Glo 3/7, read-out: Caspase SUDHL5 EC50 (median).
The mark [7] stands for this setting: Homo sapiens, SU-DHL-5, 5 h, read-out: Cytotox SUDHL5 IC50 (median), SUDHL5 cells, 5 hours, CellTiter-Glo.
[8] abbreviates: Homo sapiens, SU-DHL10, 5 h, read-out: Cytotox SUDHL10 IC50 (median), SUDHL10 cells, 5 hours, CellTiter-Glo.
Setting [9] is: Homo sapiens, SU-DHL10, 3 h, Caspase-Glo 3/7, read-out: Caspase SUDHL10 EC50 (median).
[10] abbreviates: 3 hours, Caspase-Glo 3/7, read-out: Caspase SUDHL5 EC50 (median).
Setting [11] is: read-out: Cytotox SUDHL5 IC50 (median), SUDHL5 cells, 5 hours, CellTiter-Glo.
Where [12] appears, read: read-out: Cytotox SUDHL10 IC50 (median), SUDHL10 cells, 5 hours, CellTiter-Glo.
Setting [13] is: 3 hours, Caspase-Glo 3/7, read-out: Caspase SUDHL10 EC50 (median).

The EC50 is the concentration that produces a half-maximal response. As usually defined, the IC50 is the concentration that inhibits the measured activity by half. Turning to `Cc1c2c(nn1C)CNCCCn1c(C(=O)O)c(CCCOc3cccc4ccccc34)c3ccc(Cl)c-2c31` (racemic) [Example 28, (rac)-12-chloro-10,11-dimethyl-1-[3-(naphthalen-1-yloxy)propyl]-4,5,6,7,8,10-hexahydropyrazolo[3′,4′:7,8][1,5]diazecino[9,10,1-hi]indole-2-carboxylic Acid-Formic Acid Salt], the EC50 in the data set with SUDHL5 [1] (setting [6]) is 2.9 µM; in the data set with SUDHL10 [5] (setting [9]) it was 5.8 µM. Also, the IC50 in the data set on MV-4-11 (Homo sapiens, MV4-11, 72 h) turned out to be 8.08 µM; in the data set with SUDHL5 [2] (setting [7]), 3.3 µM; in the data set with SUDHL10 [3] (setting [8]), 5.6 µM; in the data set with SUDHL5 [4] (Homo sapiens, SU-DHL-5, 72 h), 3 µM.
As to `Cc1c2c(nn1C)CN(C)CCCn1c(C(=O)O)c(CCCOc3cccc4ccccc34)c3ccc(Cl)c-2c31` (racemic) [Example 29, (rac)-12-chloro-7,10,11-trimethyl-1-[3-(naphthalen-1-yloxy)propyl]-4,5,6,7,8,10-hexahydropyrazolo[3′,4′:7,8][1,5]diazecino[9,10,1-hi]indole-2-carboxylic Acid], the concentration giving a half-maximal response (EC50) in the data set with SUDHL5 [1] (setting [6]) worked out at 1.2 µM; in the data set on SUDHL10 [5] (setting [9]), 3.7 µM. Also, the half-inhibitory concentration (IC50) with MV-4-11 (Homo sapiens, MV4-11, 72 h) turned out to be 2.68 µM; with SUDHL10 [3] (setting [8]) it was 3.2 µM.
`CCc1nn(C)c2c1-c1c(Cl)ccc3c(CCCOc4cccc5cc(F)ccc45)c(C(=O)O)n(c13)CCCCOC2` (racemic) [Example 33, (rac)-4-chloro-3-ethyl-7-{3-[(6-fluoronaphthalen-1-yl)oxy]propyl}-1-methyl-1,10,11,12,13,15-hexahydropyrazolo[4′,3′:9,10][1,6]oxazacycloundecino[8,7,6-hi]indole-8-carboxylic Acid]: the EC50 worked out at 0.67 µM with SUDHL5 [1] (setting [6]) and 5.7 µM with SUDHL10 [5] (setting [9]). Besides, the IC50 in the data set with MV-4-11 (Homo sapiens, MV4-11, 72 h) was 1.7 µM; in the data set with SUDHL5 [2] (setting [7]), 1 µM; with AMO-1 (Homo sapiens, AMO1, 72 h), 1.58 µM.
`CCc1nn(CCN2CCOCC2)c2c1-c1c(Cl)ccc3c(CCCOc4cccc5ccccc45)c(C(=O)O)n(c13)CCCCOC2` (single isomer, unassigned; enantiomer 2) [Example 10, 4-chloro-3-ethyl-1-[2-(morpholin-4-yl)ethyl]-7-[3-(naphthalen-1-yloxy)propyl]-1,10,11,12,13,15-hexahydropyrazolo[4′,3′:9,10][1,6]oxazacycloundecino[8,7,6-hi]indole-8-carboxylic acid-N-ethylethanamine Salt (Enantiomer 2)]: the EC50 with SUDHL5 [1] (setting [6]) worked out at 6.6 µM; with SUDHL10 [5] (setting [9]), 14 µM. The IC50 with MV-4-11 (Homo sapiens, MV4-11, 72 h) worked out at 10.9 µM; in the data set with SUDHL5 [2] (setting [7]) it was 5.2 µM; in the data set on SUDHL10 [3] (setting [8]), 11 µM; in the data set on SUDHL5 [4] (Homo sapiens, SU-DHL-5, 72 h), 4.9 µM.
`Cc1c2c(nn1C)CN(C)CCCCn1c(C(=O)O)c(CCCOc3cccc4ccccc34)c3ccc(Cl)c-2c31` (single isomer, unassigned; enantiomer 2) [Example 13, (−)-4-chloro-2,3,14-trimethyl-7-[3-(naphthalen-1-yloxy)propyl]-10,11,12,13,14,15-hexahydro-2H-pyrazolo[3′,4′:8,9][1,6]diazacycloundecino[10,11,1-hi]indole-8-carboxylic acid-N-ethylethanamine Salt (Enantiomer 2)]: the EC50 on SUDHL5 [1] (setting [10]) is 10 µM. Besides, the IC50 in the data set with MV-4-11 (72 hours) worked out at 12.2 µM; in the data set with SUDHL5 [2] (setting [11]) it was 6.9 µM; in the data set with SUDHL10 [3] (setting [12]), 13 µM; in the data set on SUDHL5 [4] (72 hours), 6.4 µM.
Regarding `Cc1c2c(nn1C)COCCCCn1c(C(=O)O)c(CCCOc3cccc4cc(F)ccc34)c3ccc(Cl)c-2c31` (single isomer, unassigned; enantiomer 2) [Example 17, (−)-4-chloro-7-{3-[(6-fluoronaphthalen-1-yl)oxy]propyl}-2,3-dimethyl-2,10,11,12,13,15-hexahydropyrazolo[4′,3′:9,10][1,6]oxazacycloundecino[8,7,6-hi]indole-8-carboxylic acid-N-ethylethanamine Salt (Enantiomer 2)], the EC50 was determined as 3.6 µM at SUDHL5 [1] (setting [10]) and 5.2 µM at SUDHL10 [5] (setting [13]). In addition, the IC50 in the data set with MV-4-11 (72 hours) stood at 6.7 µM; in the data set on SUDHL5 [2] (setting [11]), 3.3 µM; in the data set with SUDHL5 [4] (72 hours), 1.5 µM; with AMO-1 (72 hours) it was 8.91 µM.
Turning to `CCc1c2c(nn1C)COCCCCn1c(C(=O)O)c(CCCOc3cccc4ccccc34)c3ccc(Cl)c-2c31` (single isomer, unassigned; enantiomer 2) [Example 21, 4-chloro-3-ethyl-2-methyl-7-[3-(naphthalen-1-yloxy)propyl]-2,10,11,12,13,15-hexahydropyrazolo[4′,3′:9,10][1,6]oxazacycloundecino[8,7,6-hi]indole-8-carboxylic Acid (Enantiomer 2)], in the data set on SUDHL5 [1] (setting [10]), the 50% effective concentration (EC50) was determined as 4.6 µM. The 50% inhibitory concentration (IC50) came out at 3.7 µM with SUDHL5 [2] (setting [11]), 11 µM with SUDHL10 [3] (setting [12]) and 3.3 µM in the data set with SUDHL5 [4] (72 hours).
Regarding `CCc1c2c(nn1C)CN(C)CCCCn1c(C(=O)O)c(CCCOc3cccc4ccccc34)c3ccc(Cl)c-2c31` (single isomer, unassigned; enantiomer 2) [Example 24, 4-chloro-3-ethyl-2,14-dimethyl-7-[3-(naphthalen-1-yloxy)propyl]-10,11,12,13,14,15-hexahydro-2H-pyrazolo[3′,4′:8,9][1,6]diazacycloundecino[10,11,1-hi]indole-8-carboxylic Acid (Enantiomer 2)], the IC50 in the data set with MV-4-11 (72 hours) was determined as 6.72 µM; in the data set on SUDHL5 [2] (setting [11]), 4.7 µM; in the data set on SUDHL10 [3] (setting [12]), 7.4 µM; in the data set on SUDHL5 [4] (72 hours), 3.4 µM. For the same compound, in the data set with SUDHL10 [5] (setting [13]), the concentration giving a half-maximal response (EC50) is 10 µM.
Regarding `CCc1nn(C)c2c1-c1c(Cl)ccc3c(CCCOc4cccc5cc(F)ccc45)c(C(=O)O)n(c13)CCCCOC2` (single isomer, unassigned; enantiomer 2) [Example 35, (−)-4-chloro-3-ethyl-7-{3-[(6-fluoronaphthalen-1-yl)oxy]propyl}-1-methyl-1,10,11,12,13,15-hexahydropyrazolo[4′,3′:9,10][1,6]oxazacycloundecino[8,7,6-hi]indole-8-carboxylic Acid (Enantiomer 2)], the EC50 with SUDHL5 [1] (setting [10]) came out at 7.6 µM; with SUDHL10 [5] (setting [13]) it was 22 µM. Besides, the IC50 in the data set with MV-4-11 (72 hours) was determined as 8.59 µM; in the data set with SUDHL5 [2] (setting [11]), 6.3 µM; with SUDHL5 [4] (72 hours), 6.1 µM; with AMO-1 (72 hours), 13.3 µM.
Consider `CCc1c2c(nn1C)N(CCC1CCOCC1)CCCCCn1c(C(=O)O)c(CCCOc3cccc4cc(F)ccc34)c3ccc(Cl)c-2c31` (single isomer, unassigned; enantiomer 2) [Example 82, 4-chloro-3-ethyl-7-{3-[(6-fluoronaphthalen-1-yl)oxy]propyl}-2-methyl-15-[2-(oxan-4-yl)ethyl]-10,11,12,13,14,15-hexahydro-2H-pyrazolo[4′,3′:4,5][1,6]diazacycloundecino[3,2,1-hi]indole-8-carboxylic acid N-ethylethanamine Salt—Enantiomer 2], for which the EC50 stood at 24 µM in the data set on SUDHL5 [1] (setting [10]) and 23 µM in the data set with SUDHL10 [5] (setting [13]). Further, the IC50 in the data set with SUDHL5 [2] (setting [11]) came out at 28 µM; in the data set on SUDHL10 [3] (setting [12]) it was 30 µM; with SUDHL5 [4] (72 hours), 7.1 µM.
Take `Cc1c2c(nn1C)COCC1CCC1Cn1c(C(=O)O)c(CCCOc3cccc4ccccc34)c3ccc(Cl)c-2c31` (single isomer, unassigned; stereoisomer 2) [Example 64]: the EC50 was 1.8 µM in the data set with SUDHL5 [1] (setting [10]) and 8.3 µM with SUDHL10 [5] (setting [13]). Further, the IC50 in the data set with SUDHL5 [2] (setting [11]) turned out to be 2.3 µM; with SUDHL10 [3] (setting [12]) it was 7.3 µM; with SUDHL5 [4] (72 hours), 4.2 µM; in the data set on AMO-1 (72 hours), 10.8 µM.
